{"source": "paper PMC3846386", "about": "(Journal of medicinal chemistry, 2013)", "key": {"[1]": {"test": "CellTiter-Glo luminescent cell viability assay", "type": "cell-based"}, "[2]": {"molecular_target": "T1, GFP-FLMBT (GFP fusion of full-length L3MBTL3) (Homo sapiens, UniProt Q96JM7)", "T1 sequence (Q96JM7 1-780)": "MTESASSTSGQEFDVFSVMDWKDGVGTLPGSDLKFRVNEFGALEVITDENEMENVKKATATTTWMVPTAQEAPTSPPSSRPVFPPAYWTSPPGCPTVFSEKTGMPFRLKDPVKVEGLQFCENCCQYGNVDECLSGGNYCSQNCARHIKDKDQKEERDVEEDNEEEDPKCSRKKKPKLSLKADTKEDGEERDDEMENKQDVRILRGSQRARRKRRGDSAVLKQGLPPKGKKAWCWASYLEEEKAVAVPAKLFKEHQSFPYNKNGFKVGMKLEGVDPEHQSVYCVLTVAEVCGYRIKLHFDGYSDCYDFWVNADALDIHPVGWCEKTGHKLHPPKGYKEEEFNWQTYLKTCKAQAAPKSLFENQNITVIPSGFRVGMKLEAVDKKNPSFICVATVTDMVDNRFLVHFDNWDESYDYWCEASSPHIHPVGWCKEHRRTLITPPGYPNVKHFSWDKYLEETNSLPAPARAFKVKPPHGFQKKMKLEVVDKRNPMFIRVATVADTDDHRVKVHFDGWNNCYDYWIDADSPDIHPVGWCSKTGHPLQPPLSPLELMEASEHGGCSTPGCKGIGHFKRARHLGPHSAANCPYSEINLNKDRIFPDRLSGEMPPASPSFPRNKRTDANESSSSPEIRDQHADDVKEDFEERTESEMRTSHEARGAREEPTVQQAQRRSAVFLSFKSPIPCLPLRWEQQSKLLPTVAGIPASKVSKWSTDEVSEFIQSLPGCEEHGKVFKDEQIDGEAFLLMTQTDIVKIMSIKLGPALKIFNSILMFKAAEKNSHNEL", "test": "Displacement of mero76-1 from GFP-FLMBT in HEK293 cells", "type": "cell-based"}, "endogenous L3MBTL3": {"molecular_target": "T2, endogenous L3MBTL3 (Homo sapiens, UniProt Q96JM7)", "T2 sequence (Q96JM7 1-780)": "T1 sequence (Q96JM7 1-780)", "test": "Biotin-1 pull-down", "type": "binding", "details": "G-401 cell lysates, Western analysis"}, "[3]": {"test_system": "GFP fusion protein containing the three MBT domains of L3MBTL3 (GFP-3MBT)", "details": "read-out: EC50, effect on subnuclear localization of GFP-3MBT; cells; cited from earlier work"}, "L3MBTL3": {"molecular_target": "T3, L3MBTL3 (Homo sapiens, UniProt Q96JM7)", "T3 sequence (Q96JM7 1-780)": "T1 sequence (Q96JM7 1-780)", "test": "AlphaScreen competition assay", "details": "in words"}, "L3MBTL1": {"molecular_target": "T4, L3MBTL1 (Homo sapiens, UniProt Q9Y468)", "T4 sequence (Q9Y468 1-772 isoform Q9Y468-1)": "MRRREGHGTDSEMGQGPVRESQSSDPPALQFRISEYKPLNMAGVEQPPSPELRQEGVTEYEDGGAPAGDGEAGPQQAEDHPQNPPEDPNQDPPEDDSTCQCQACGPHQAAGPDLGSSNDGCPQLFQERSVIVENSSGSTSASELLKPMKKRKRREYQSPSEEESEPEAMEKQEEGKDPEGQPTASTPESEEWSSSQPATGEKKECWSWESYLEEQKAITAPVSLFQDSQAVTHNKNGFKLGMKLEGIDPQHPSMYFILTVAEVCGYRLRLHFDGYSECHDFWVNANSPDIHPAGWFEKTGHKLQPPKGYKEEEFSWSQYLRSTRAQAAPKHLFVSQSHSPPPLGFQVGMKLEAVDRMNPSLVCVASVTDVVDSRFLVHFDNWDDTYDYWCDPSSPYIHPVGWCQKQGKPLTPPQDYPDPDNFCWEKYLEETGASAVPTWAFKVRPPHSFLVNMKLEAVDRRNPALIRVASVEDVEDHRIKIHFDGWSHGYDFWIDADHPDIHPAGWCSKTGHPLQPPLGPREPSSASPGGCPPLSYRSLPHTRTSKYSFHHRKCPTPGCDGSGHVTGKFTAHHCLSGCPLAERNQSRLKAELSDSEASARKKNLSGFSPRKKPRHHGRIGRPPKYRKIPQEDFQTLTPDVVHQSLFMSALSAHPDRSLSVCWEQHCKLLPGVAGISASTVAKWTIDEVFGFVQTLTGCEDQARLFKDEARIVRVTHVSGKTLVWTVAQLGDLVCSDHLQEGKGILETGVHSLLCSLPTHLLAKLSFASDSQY", "test": "Isothermal titration calorimetry", "type": "binding", "details": "in words"}}, "data": [{"smiles": "O=C(c1ccc(C(=O)N2CCC(N3CCCC3)CC2)c(Nc2ccccc2)c1)N1CCC(N2CCCC2)CC1", "note": "[Compound 1]", "values": [{"measurement": "cytotoxicity, no observable level up to", "setting": "[1]", "result": "> 100", "unit": "µM"}, {"measurement": "displacement of mero76-1 from GFP-L3MBTL3", "setting": "[2]; 1 equivalent relative to mero76-1", "result": "displace mero76-1 from GFP-L3MBTL3"}, {"measurement": "displacement of mero76-1 from GFP-FLMBT", "setting": "[2]; 1 or 5 equivalents relative to mero76-1 (both concentrations)", "result": "largely displaces mero76-1 from GFP-FLMBT"}, {"measurement": "competition with biotin-1 for binding to endogenous L3MBTL3", "setting": "endogenous L3MBTL3", "result": "competed off with soluble 1"}, {"measurement": "EC50", "setting": "[3]", "result": "~0.5", "unit": "µM"}]}, {"smiles": "CCN1Cc2ccc(NC(=O)c3ccc(C(=O)N4CCC(C5CCCN5)CC4)cc3)cc2C1", "note": "(centres unmarked) [Compound 2]", "values": [{"measurement": "cytotoxicity, no observable level up to", "setting": "[1]", "result": "> 100", "unit": "µM"}]}, {"smiles": "O=C(c1cccc(Br)c1)N1CCC(N2CCCC2)CC1", "note": "[Compound 57]", "values": [{"measurement": "change in affinity for L3MBTL1 L361F relative to wildtype L3MBTL1 by ITC", "setting": "L3MBTL1 L361F", "result": "≤ 2", "unit": "fold"}, {"measurement": "binding to L3MBTL3 versus L3MBTL1", "setting": "L3MBTL3", "result": "equally well"}]}, {"smiles": "O=C(c1ccc(C(=O)N2CCC(N3CCCC3)CC2)c(NCc2ccccc2)c1)N1CCC(N2CCCC2)CC1", "note": "[Compound 49]", "values": [{"measurement": "affinity for L3MBTL1 by follow-up ITC", "setting": "L3MBTL1", "result": "micromolar affinity"}]}, {"smiles": "O=C(c1ccc(C(=O)N2CCC(N3CCCC3)CC2)cc1)N1CCC(N2CCCC2)CC1", "note": "[Compound 5]", "values": [{"measurement": "cytotoxicity, no observable level up to", "setting": "[1]", "result": "> 100", "unit": "µM"}]}, {"smiles": "O=C(c1ccc(C(=O)N2CCC(N3CCCCC3)CC2)cc1)N1CCC(N2CCCCC2)CC1", "note": "[Compound 37]", "values": [{"measurement": "competition with biotin-1 for binding to endogenous L3MBTL3", "setting": "endogenous L3MBTL3", "result": "failed to compete for binding to endogenous L3MBTL3"}]}]}
